Reference: ChEMBL document CHEMBL1201862, “PubChem BioAssay data set” (2004)
Calls of active or inactive are those of the source. Rule as the data show it, for most assays here: actives have a measured IC50 and inactives only a lower limit.

Assays:
Leucine aminopeptidase = molecular target: T1, Leucine aminopeptidase (Plasmodium falciparum 3D7, UniProt Q8IL11); assay: P. falciparum M17LAP inhibitors, primary screen, biochemical, fluorogenic H-Leu-NHMec substrate, 1536-well (AID 1619); type: functional
T1 sequence (Q8IL11 whole entry): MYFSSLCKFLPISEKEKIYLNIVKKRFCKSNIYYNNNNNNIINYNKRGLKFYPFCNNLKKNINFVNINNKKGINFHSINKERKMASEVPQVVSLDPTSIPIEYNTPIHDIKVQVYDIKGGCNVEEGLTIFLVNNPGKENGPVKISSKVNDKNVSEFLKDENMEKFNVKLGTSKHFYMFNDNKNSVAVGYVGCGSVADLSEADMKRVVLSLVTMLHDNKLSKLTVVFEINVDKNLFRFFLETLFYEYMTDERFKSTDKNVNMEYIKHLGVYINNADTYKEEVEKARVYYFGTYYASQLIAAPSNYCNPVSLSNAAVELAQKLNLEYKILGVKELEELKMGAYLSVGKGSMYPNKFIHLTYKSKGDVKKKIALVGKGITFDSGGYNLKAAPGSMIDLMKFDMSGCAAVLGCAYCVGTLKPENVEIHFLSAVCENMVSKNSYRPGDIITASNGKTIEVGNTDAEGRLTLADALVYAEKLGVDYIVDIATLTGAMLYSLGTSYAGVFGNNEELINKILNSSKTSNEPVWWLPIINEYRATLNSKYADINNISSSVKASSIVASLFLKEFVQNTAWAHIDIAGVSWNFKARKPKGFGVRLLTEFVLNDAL

[1] = molecular target: T2, Sentrin-specific protease 8 (Homo sapiens, UniProt Q96LD8); assay: inhibition of human SENP8 cleavage activity – biochemical, luminescence, SAR follow-up (AID 504501); type: functional
T2 sequence (Q96LD8 whole entry): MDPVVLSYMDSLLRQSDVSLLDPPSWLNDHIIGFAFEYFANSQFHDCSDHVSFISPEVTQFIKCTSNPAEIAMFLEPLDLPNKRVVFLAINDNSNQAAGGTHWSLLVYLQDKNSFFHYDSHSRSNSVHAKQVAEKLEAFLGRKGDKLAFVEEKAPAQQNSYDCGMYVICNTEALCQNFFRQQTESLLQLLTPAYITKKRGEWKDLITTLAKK

[2] = molecular target: T3, Sentrin-specific protease 6 (Homo sapiens, UniProt Q9GZR1); type: functional
T3 sequence (Q9GZR1 whole entry): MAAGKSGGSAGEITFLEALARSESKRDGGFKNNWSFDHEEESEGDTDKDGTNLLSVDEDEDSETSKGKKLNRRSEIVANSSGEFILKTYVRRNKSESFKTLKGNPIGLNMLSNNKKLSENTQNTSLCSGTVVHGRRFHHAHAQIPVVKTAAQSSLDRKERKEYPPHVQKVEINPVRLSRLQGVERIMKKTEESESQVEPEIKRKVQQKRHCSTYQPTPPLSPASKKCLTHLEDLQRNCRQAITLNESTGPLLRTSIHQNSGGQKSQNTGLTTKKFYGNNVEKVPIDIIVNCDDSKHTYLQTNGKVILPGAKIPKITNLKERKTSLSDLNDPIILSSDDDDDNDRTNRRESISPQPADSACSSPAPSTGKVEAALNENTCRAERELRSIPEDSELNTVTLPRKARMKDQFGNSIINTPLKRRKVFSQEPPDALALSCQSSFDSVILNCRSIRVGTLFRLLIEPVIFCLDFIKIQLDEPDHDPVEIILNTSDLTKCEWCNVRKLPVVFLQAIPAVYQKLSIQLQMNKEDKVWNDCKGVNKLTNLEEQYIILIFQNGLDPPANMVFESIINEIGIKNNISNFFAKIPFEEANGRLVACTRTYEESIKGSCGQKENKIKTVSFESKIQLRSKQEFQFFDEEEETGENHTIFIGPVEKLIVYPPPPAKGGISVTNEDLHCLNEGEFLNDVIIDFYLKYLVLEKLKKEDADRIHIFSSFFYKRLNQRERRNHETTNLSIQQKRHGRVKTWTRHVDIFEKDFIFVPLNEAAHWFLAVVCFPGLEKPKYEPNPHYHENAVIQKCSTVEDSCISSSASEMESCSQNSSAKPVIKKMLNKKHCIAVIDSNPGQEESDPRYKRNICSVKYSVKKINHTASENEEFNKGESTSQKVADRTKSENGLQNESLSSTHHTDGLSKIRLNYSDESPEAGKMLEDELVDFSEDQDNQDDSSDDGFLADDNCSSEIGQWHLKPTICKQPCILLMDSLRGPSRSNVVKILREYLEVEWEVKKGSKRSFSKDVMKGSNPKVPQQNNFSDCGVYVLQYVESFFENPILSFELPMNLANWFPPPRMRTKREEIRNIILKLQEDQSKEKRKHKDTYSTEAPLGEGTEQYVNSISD

HT-1080 = assay: HT1080 cell viability loss – fluorescence readout (AID 620); type: functional, cell-based; conditions: Homo sapiens
A-375 = assay: MITF: Counter assay: A375 proliferation Measured in Cell-Based System Using Plate Reader - 2084-03_Inhibitor_Dose_DryPowder_Activity. [Related pubchem assays (depositor defined):AID488944]; type: functional; conditions: Homo sapiens
Caspase-3 [3] = molecular target: T4, Caspase-3 (Homo sapiens, UniProt P42574); assay: SAR Analysis of small molecule inhibitors of Sentrin-specific proteases (SENPs) using a Caspase-3 Selectivity assay. [Related pubchem assays (depositor defined):AID2540, AID2599, AID434973, AID489001]; type: functional
T4 sequence (P42574 whole entry): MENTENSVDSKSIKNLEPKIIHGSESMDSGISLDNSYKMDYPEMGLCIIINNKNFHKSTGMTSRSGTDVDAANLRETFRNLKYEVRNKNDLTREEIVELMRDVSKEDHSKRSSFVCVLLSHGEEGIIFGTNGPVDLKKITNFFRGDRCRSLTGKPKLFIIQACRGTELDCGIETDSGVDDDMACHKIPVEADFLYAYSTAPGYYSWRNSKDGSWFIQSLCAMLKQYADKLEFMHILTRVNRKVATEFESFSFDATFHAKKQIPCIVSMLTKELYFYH

Jurkat = assay: blockers of NF-kB activation in T cells – Jurkat, luciferase reporter, luminescence, B- and T-cell, dose response (AID 489004); type: functional, cell-based; conditions: Homo sapiens;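 also: NF-kB luciferase reporter Jurkat cells stimulated with PMA plus ionomycin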
[4] = molecular target: T3, Sentrin-specific protease 6; assay: SAR Analysis of small molecule inhibitors of Sentrin-specific protease 6 (SENP6) using a Luminescent assay. [Related pubchem assays (depositor defined):AID2582, AID2599]; type: functional
Caspase-3 [5] = molecular target: T4, Caspase-3; type: functional

| SMILES | IC50 (Leucine aminopeptidase) | IC50 [1] | IC50 [2] | EC50 (HT-1080) | AC50 (A-375) | IC50 (Caspase-3 [3]) | IC50 (Jurkat) | IC50 [4] | IC50 (Caspase-3 [5]) |
| --- | --- | --- | --- | --- | --- | --- | --- | --- | --- |
| N#Cc1c(NC(=O)CSc2nc[nH]n2)sc2c1CCCCC2 | < 1 µM (active) | 12.7 µM (active) | 4 µM (active) | > 50 µM (not active) | > 35 µM (active) | 40.4 µM (active) | < 0.16 µM (active) | 8.05 µM (active) | 45.2 µM (active) |
| COc1ccc(C(N)c2nccc3cc(OC)c(OC)cc23)cc1OC (configuration not stated) |  | > 99 µM (inactive) |  |  |  | > 99 µM (inactive) |  | > 99 µM (inactive) |  |
